# “And” between values parts separate entries of the source, which are not always exact repeats. Equal entries are not always repeated. Inconclusive results and toxic doses are left out.
# System: CD2F1 mice, L1210 leukemia ip, survival T/C
# Experiment: NCI In Vivo Anticancer Drug Screen. Data for tumor model L1210 Leukemia (intraperitoneal) in CD2F1 (CDF1) mice
# Conditions: higher = longer survival
# How it was run: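 Each value reflects a quotient of treated over vehicle control outcomes in mice with a transplanted tumor.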
smiles,measurement,setting,value
CN(C)CCN1C(=O)c2cccc3cc(N)cc(c23)C1=O,T/C,"endpoint: mean survival time, dose: 1.0 mg/kg/injection, schedule: Q01DX009 (ip), vehicle: saline with Tween-80",92 % of control and 104 % of control
same,T/C,"endpoint: mean survival time, dose: 2.0 mg/kg/injection, schedule: Q01DX009 (ip), vehicle: saline with Tween-80",101 % of control and 102 % of control
same,T/C,"endpoint: mean survival time, dose: 4.0 mg/kg/injection, schedule: Q01DX009 (ip), vehicle: saline with Tween-80",107 % of control and 108 % of control
same,T/C,"endpoint: mean survival time, dose: 16.0 mg/kg/injection, schedule: Q01DX009 (ip), vehicle: saline with Tween-80",175 % of control and 197 % of control
same,T/C,"endpoint: mean survival time, dose: 32.0 mg/kg/injection, schedule: Q01DX009 (ip), vehicle: saline with Tween-80",89 % of control and 96 % of control
same,T/C,"endpoint: median survival time, dose: 1.0 mg/kg/injection, schedule: Q01DX009 (ip), vehicle: acid diluted with saline",99 % of control
same,T/C,"endpoint: median survival time, dose: 1.2 mg/kg/injection, schedule: Q03HX024 (ip), vehicle: water",113 % of control
same,T/C,"endpoint: median survival time, dose: 1.8 mg/kg/injection, schedule: Q03HX024 (ip), vehicle: water",117 % of control
same,T/C,"endpoint: median survival time, dose: 2.0 mg/kg/injection, schedule: Q01DX009 (ip), vehicle: acid diluted with saline",97 % of control and 107 % of control
same,T/C,"endpoint: median survival time, dose: 2.0 mg/kg/injection, schedule: Q01DX009 (ip), vehicle: saline with Tween-80",105 % of control
same,T/C,"endpoint: median survival time, dose: 2.7 mg/kg/injection, schedule: Q03HX024 (ip), vehicle: water",115 % of control
same,T/C,"endpoint: median survival time, dose: 2.9 mg/kg/injection, schedule: Q01DX005 (iv), vehicle: water",108 % of control
same,T/C,"endpoint: median survival time, dose: 3.2 mg/kg/injection, schedule: Q01DX009 (ip), vehicle: saline",118 % of control
same,T/C,"endpoint: median survival time, dose: 3.2 mg/kg/injection, schedule: Q01DX009 (ip), vehicle: water",105 % of control
same,T/C,"endpoint: median survival time, dose: 3.65 mg/kg/injection, schedule: Q03HX008 (ip), vehicle: water",118 % of control
same,T/C,"endpoint: median survival time, dose: 4.0 mg/kg/injection, schedule: Q01DX009 (ip), vehicle: acid diluted with saline",113 % of control and 99 % of control
same,T/C,"endpoint: median survival time, dose: 4.0 mg/kg/injection, schedule: Q01DX009 (ip), vehicle: saline with Tween-80",116 % of control
same,T/C,"endpoint: median survival time, dose: 4.35 mg/kg/injection, schedule: Q01DX005 (iv), vehicle: water",105 % of control
same,T/C,"endpoint: median survival time, dose: 4.7 mg/kg/injection, schedule: Q01DX009 (ip), vehicle: water",124 % of control
same,T/C,"endpoint: median survival time, dose: 5.0 mg/kg/injection, schedule: Q01DX009 (ip), vehicle: acid diluted with saline",113 % of control
same,T/C,"endpoint: median survival time, dose: 5.44 mg/kg/injection, schedule: Q03HX008 (ip), vehicle: water",120 % of control
same,T/C,"endpoint: median survival time, dose: 5.76 mg/kg/injection, schedule: Q01DX005 (ip), vehicle: water",117 % of control
same,T/C,"endpoint: median survival time, dose: 6.03 mg/kg/injection, schedule: Q03HX024 (ip), vehicle: water",154 % of control
same,T/C,"endpoint: median survival time, dose: 6.5 mg/kg/injection, schedule: Q01DX005 (iv), vehicle: saline with Tween-80",105 % of control
same,T/C,"endpoint: median survival time, dose: 6.5 mg/kg/injection, schedule: Q01DX005 (iv), vehicle: water",113 % of control
same,T/C,"endpoint: median survival time, dose: 7.0 mg/kg/injection, schedule: Q01DX009 (ip), vehicle: acid diluted with saline",114 % of control
same,T/C,"endpoint: median survival time, dose: 7.1 mg/kg/injection, schedule: Q01DX009 (ip), vehicle: saline with Tween-80",123 % of control
same,T/C,"endpoint: median survival time, dose: 8.0 mg/kg/injection, schedule: Q01DX009 (ip), vehicle: acid diluted with saline",118 % of control
same,T/C,"endpoint: median survival time, dose: 8.46 mg/kg/injection, schedule: Q01DX005 (ip), vehicle: saline with Tween-80",114 % of control
same,T/C,"endpoint: median survival time, dose: 8.46 mg/kg/injection, schedule: Q01DX005 (ip), vehicle: water",120 % of control
same,T/C,"endpoint: median survival time, dose: 9.0 mg/kg/injection, schedule: Q03HX024 (ip), vehicle: water",209 % of control
same,T/C,"endpoint: median survival time, dose: 9.7 mg/kg/injection, schedule: Q01DX005 (iv), vehicle: saline with Tween-80",114 % of control
same,T/C,"endpoint: median survival time, dose: 9.7 mg/kg/injection, schedule: Q01DX005 (iv), vehicle: water",120 % of control
same,T/C,"endpoint: median survival time, dose: 9.7 mg/kg/injection, schedule: Q04DX003 (ip), vehicle: water",120 % of control
same,T/C,"endpoint: median survival time, dose: 10.0 mg/kg/injection, schedule: Q01DX009 (ip), vehicle: acid diluted with saline",117 % of control
same,T/C,"endpoint: median survival time, dose: 10.7 mg/kg/injection, schedule: Q01DX009 (ip), vehicle: saline",165 % of control
same,T/C,"endpoint: median survival time, dose: 11.0 mg/kg/injection, schedule: Q01DX009 (ip), vehicle: saline with Tween-80",150 % of control and 167 % of control
same,T/C,"endpoint: median survival time, dose: 12.1 mg/kg/injection, schedule: Q03HX008 (ip), vehicle: water",174 % of control
same,T/C,"endpoint: median survival time, dose: 13.4 mg/kg/injection, schedule: Q03HX024 (ip), vehicle: water",103 % of control
same,T/C,"endpoint: median survival time, dose: 14.5 mg/kg/injection, schedule: Q04DX003 (ip), vehicle: water",120 % of control
same,T/C,"endpoint: median survival time, dose: 14.6 mg/kg/injection, schedule: Q01DX001 (iv), vehicle: water",112 % of control
same,T/C,"endpoint: median survival time, dose: 16.0 mg/kg/injection, schedule: Q01DX009 (ip), vehicle: acid diluted with saline",175 % of control and 217 % of control and 112 % of control
same,T/C,"endpoint: median survival time, dose: 16.0 mg/kg/injection, schedule: Q01DX009 (ip), vehicle: saline",206 % of control
same,T/C,"endpoint: median survival time, dose: 16.0 mg/kg/injection, schedule: Q01DX009 (ip), vehicle: water",187 % of control
same,T/C,"endpoint: median survival time, dose: 19.3 mg/kg/injection, schedule: Q01DX005 (ip), vehicle: saline with Tween-80",158 % of control
same,T/C,"endpoint: median survival time, dose: 19.3 mg/kg/injection, schedule: Q01DX005 (ip), vehicle: water",183 % of control
same,T/C,"endpoint: median survival time, dose: 21.6 mg/kg/injection, schedule: Q01DX005 (iv), vehicle: saline with Tween-80",162 % of control
same,T/C,"endpoint: median survival time, dose: 21.6 mg/kg/injection, schedule: Q01DX005 (iv), vehicle: water",182 % of control
same,T/C,"endpoint: median survival time, dose: 21.8 mg/kg/injection, schedule: Q01DX001 (iv), vehicle: water",113 % of control
same,T/C,"endpoint: median survival time, dose: 24.0 mg/kg/injection, schedule: Q01DX009 (ip), vehicle: saline with Tween-80",158 % of control and 163 % of control
same,T/C,"endpoint: median survival time, dose: 24.0 mg/kg/injection, schedule: Q01DX009 (ip), vehicle: saline",118 % of control
same,T/C,"endpoint: median survival time, dose: 24.0 mg/kg/injection, schedule: Q01DX009 (ip), vehicle: water",117 % of control
same,T/C,"endpoint: median survival time, dose: 28.8 mg/kg/injection, schedule: Q01DX001 (ip), vehicle: water",120 % of control
same,T/C,"endpoint: median survival time, dose: 28.8 mg/kg/injection, schedule: Q01DX005 (ip), vehicle: saline with Tween-80",187 % of control
same,T/C,"endpoint: median survival time, dose: 28.8 mg/kg/injection, schedule: Q01DX005 (ip), vehicle: water",195 % of control
same,T/C,"endpoint: median survival time, dose: 28.9 mg/kg/injection, schedule: Q01DX009 (oral), vehicle: water",174 % of control
same,T/C,"endpoint: median survival time, dose: 32.0 mg/kg/injection, schedule: Q01DX009 (ip), vehicle: acid diluted with saline",95 % of control
same,T/C,"endpoint: median survival time, dose: 32.0 mg/kg/injection, schedule: Q01DX009 (ip), vehicle: saline with Tween-80",90 % of control and 108 % of control
same,T/C,"endpoint: median survival time, dose: 32.2 mg/kg/injection, schedule: Q01DX005 (iv), vehicle: saline with Tween-80",96 % of control
same,T/C,"endpoint: median survival time, dose: 32.3 mg/kg/injection, schedule: Q04DX003 (ip), vehicle: water",196 % of control
same,T/C,"endpoint: median survival time, dose: 36.0 mg/kg/injection, schedule: Q01DX009 (ip), vehicle: saline",93 % of control
same,T/C,"endpoint: median survival time, dose: 43.1 mg/kg/injection, schedule: Q01DX009 (oral), vehicle: water",108 % of control
same,T/C,"endpoint: median survival time, dose: 43.2 mg/kg/injection, schedule: Q01DX005 (ip), vehicle: saline with Tween-80",95 % of control
same,T/C,"endpoint: median survival time, dose: 48.3 mg/kg/injection, schedule: Q04DX003 (ip), vehicle: water",244 % of control
same,T/C,"endpoint: median survival time, dose: 72.0 mg/kg/injection, schedule: Q04DX003 (ip), vehicle: water",108 % of control
C/C(=C\c1ccccc1)CCC(=O)O,T/C,"endpoint: mean survival time, dose: 50.0 mg/kg/injection, schedule: Q04DX003 (ip), vehicle: saline",100 % of control
same,T/C,"endpoint: mean survival time, dose: 100.0 mg/kg/injection, schedule: Q04DX003 (ip), vehicle: saline",103 % of control
same,T/C,"endpoint: mean survival time, dose: 200.0 mg/kg/injection, schedule: Q04DX003 (ip), vehicle: saline",97 % of control
CC1(C)OC2C(/C=C3/CC(=O)NC3=O)OC(n3ccc(=O)[nH]c3=O)C2O1 (stereo not drawn),T/C,"endpoint: mean survival time, dose: 12.5 mg/kg/injection, schedule: Q01DX005 (ip), vehicle: distilled water + Tween-80",100 % of control
same,T/C,"endpoint: mean survival time, dose: 25.0 mg/kg/injection, schedule: Q01DX005 (ip), vehicle: distilled water + Tween-80",100 % of control
same,T/C,"endpoint: mean survival time, dose: 50.0 mg/kg/injection, schedule: Q01DX005 (ip), vehicle: distilled water + Tween-80",103 % of control
same,T/C,"endpoint: mean survival time, dose: 100.0 mg/kg/injection, schedule: Q01DX005 (ip), vehicle: distilled water + Tween-80",100 % of control
same,T/C,"endpoint: mean survival time, dose: 200.0 mg/kg/injection, schedule: Q01DX005 (ip), vehicle: distilled water + Tween-80",103 % of control

# — PubChem BioAssay AID256 (DTP/NCI, 2004)
